Test results published in patent publication US20250188069A1, “COMPOUNDS AND METHODS FOR DEGRADING CASEIN KINASE 1 ALPHA” (PIN THERAPEUTICS, INC., priority 2022, published 2025).

Assays:
CK1α = CK1α (Homo sapiens, UniProt P48729+Q96SW2); assay: CK1α HiBiT assay in CK1a_HiBiT_Jurkat cells; format: cell-based; conditions: DC50 class, 16 hours, Nano-Glo HiBiT Lytic Detection, read-out: CK1α degradation classification
Protocol: CK1a_HiBiT_Jurkat cells were culture in RPMI 1640 medium (Gibco, 11875093) with 10% FBS under standard tissue culture conditions. Briefly, Compounds of the present disclosure was added to 30,000 cells in a white 96-well plate (9-point dose response, top concentration […], half-log serial dilution, final DMSO concentration 0.5%) and incubated for 16 hours. CK1a level was determined in along with the Nano-Glo HiBiT Lytic Detection system [Promega N3050] with final concentration of 1 x. The luminescence was normalized to that of DMSO-treated samples. DC50 values were obtained using three-parameter non-linear regressions using Prism (GraphPad). The compounds are classified based on DC50 values as follows. • A: DC50 is less than or equal to 1×10^−7; • B: DC50 is greater than 1×10^−7 & less than or equal to 1×10^−6; • C: DC50 is greater than 1×10^−6; • NA: not calculated (no activity detected, <25% viability reduction at 1 uM)

MV-4-11 cells = assay: AML cell viability assay (RealTime-Glo); format: cell-based; conditions: Homo sapiens, MV4-11; IC50 class; MV-4-11 cells, RealTime-Glo after 44 hrs of treatment (TABLE 5); read-out: Cell viability classification

Sequence of CK1α (P48729 whole entry): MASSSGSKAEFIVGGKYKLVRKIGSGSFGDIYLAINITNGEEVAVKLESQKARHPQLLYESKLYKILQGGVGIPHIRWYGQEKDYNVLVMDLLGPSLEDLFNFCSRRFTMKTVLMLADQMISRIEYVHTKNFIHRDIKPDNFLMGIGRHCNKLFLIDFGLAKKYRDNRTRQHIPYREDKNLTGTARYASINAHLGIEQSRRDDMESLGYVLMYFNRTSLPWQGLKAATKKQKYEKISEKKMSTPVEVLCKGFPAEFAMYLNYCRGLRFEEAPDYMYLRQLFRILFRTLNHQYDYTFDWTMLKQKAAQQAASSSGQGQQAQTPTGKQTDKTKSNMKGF
Sequence of CK1α (Q96SW2 whole entry): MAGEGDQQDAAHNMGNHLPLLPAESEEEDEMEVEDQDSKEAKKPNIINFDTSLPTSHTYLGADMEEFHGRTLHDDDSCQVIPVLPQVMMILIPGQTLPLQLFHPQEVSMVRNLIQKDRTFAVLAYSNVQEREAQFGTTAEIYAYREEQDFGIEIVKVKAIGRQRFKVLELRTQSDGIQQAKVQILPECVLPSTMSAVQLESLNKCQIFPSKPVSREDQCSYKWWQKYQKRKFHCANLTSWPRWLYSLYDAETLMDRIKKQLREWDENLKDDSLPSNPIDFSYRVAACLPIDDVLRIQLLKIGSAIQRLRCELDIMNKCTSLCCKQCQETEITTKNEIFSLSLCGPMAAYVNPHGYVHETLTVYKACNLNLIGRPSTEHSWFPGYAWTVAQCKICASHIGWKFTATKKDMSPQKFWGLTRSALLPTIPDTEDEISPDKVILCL
Sequence of CK1α (Q16531 whole entry partner): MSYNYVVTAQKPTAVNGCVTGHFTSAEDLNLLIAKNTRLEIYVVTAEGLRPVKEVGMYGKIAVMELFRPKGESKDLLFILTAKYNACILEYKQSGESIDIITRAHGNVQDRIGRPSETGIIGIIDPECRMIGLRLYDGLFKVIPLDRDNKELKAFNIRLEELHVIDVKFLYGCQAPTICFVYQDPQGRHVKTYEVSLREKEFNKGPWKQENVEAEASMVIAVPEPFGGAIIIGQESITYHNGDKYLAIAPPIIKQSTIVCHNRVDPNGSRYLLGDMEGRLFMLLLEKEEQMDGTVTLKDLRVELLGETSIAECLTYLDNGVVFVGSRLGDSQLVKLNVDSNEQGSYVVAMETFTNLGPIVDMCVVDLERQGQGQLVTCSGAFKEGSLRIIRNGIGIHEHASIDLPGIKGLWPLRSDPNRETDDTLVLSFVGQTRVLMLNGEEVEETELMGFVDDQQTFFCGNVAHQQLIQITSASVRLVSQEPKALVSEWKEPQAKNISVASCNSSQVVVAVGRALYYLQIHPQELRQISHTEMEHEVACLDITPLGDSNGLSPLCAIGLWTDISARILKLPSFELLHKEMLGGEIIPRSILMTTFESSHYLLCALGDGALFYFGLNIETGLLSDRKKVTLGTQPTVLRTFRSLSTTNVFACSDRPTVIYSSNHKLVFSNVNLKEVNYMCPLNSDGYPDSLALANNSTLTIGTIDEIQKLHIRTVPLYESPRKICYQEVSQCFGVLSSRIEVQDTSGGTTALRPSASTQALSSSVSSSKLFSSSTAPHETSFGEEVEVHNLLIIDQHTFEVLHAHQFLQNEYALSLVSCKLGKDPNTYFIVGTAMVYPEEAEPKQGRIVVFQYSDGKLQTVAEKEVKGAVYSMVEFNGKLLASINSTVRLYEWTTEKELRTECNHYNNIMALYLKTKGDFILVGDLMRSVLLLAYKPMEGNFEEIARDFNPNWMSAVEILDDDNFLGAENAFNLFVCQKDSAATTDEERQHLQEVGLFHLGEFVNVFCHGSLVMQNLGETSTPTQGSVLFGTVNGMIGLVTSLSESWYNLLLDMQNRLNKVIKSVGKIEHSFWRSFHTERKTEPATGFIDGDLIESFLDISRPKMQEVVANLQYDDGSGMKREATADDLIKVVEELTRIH

Structure (SMILES) | DC50 (CK1α) [µM] | IC50 (MV-4-11 cells) [µM]
O=C1CCC(N2Cc3c(cccc3N(CCC3CC3)[C@H]3CC[C@H](NC45CC(C(F)(F)F)(C4)C5)CC3)C2=O)C(=O)N1 (stereo partly drawn) [Compound 646, 3-{4-[(2-cyclopropylethyl)[(1r,4r)-4-{[3-(trifluoromethyl)bicyclo[1.1.1]pentan-1-yl]amino}cyclohexyl]amino]-1-oxo-3H-isoindol-2-yl}piperidine-2,6-dione; trifluoroacetic acid] | ≤ 0.1 | 0.1 to 1
CC1(C)CC(CN(c2cccc3c2CN(C2CCC(=O)NC2=O)C3=O)[C@H]2CC[C@H](NCCC(F)(F)F)CC2)C1 (stereo partly drawn) [Compound 652, 3-(4-{[(3,3-dimethylcyclobutyl)methyl][(1r,4r)-4-[(3,3,3-trifluoropropyl)amino]cyclohexyl]amino}-1-oxo-3H-isoindol-2-yl)piperidine-2,6-dione; bis(trifluoroacetic acid)] | ≤ 0.1 | > 1
O=C1CCC(N2Cc3c(cccc3N(CCC3CC3)[C@H]3CC[C@H](N4CCCC4)CC3)C2=O)C(=O)N1 (stereo partly drawn) [Compound 669] | ≤ 0.1 | 0.1 to 1
O=C1CCC(N2Cc3c(cccc3N(CCC3CC3)[C@H]3CC[C@H](N4CCOCC4)CC3)C2=O)C(=O)N1 (stereo partly drawn) [Compound 674, 3-{4-[(2-cyclopropylethyl)[(1r,4r)-4-(morpholin-4-yl)cyclohexyl]amino]-1-oxo-3H-isoindol-2-yl}piperidine-2,6-dione] | ≤ 0.1 | < 0.1
O=C1CCC(N2Cc3c(cccc3N(CCC3CC3)[C@H]3CC[C@H](NCc4ccc(C(F)(F)F)cn4)CC3)C2=O)C(=O)N1 (stereo partly drawn) [Compound 664, 3-{4-[(2-cyclopropylethyl)[(1r,4r)-4-({[5-(trifluoromethyl)pyridin-2-yl]methyl}amino)cyclohexyl]amino]-1-oxo-3H-isoindol-2-yl}piperidine-2,6-dione formic acid] | ≤ 0.1 | 0.1 to 1
O=C1CCC(N2Cc3c(cc(F)cc3N(CCC3CC3)[C@H]3CC[C@@H](NCC4(C(F)(F)F)CC4)CC3)C2=O)C(=O)N1 (stereo partly drawn) [Compound 658A, 3-{4-[(2-cyclopropylethyl)[(1s,4s)-4-({[1-(trifluoromethyl)cyclopropyl]methyl}amino)cyclohexyl]amino]-6-fluoro-1-oxo-3H-isoindol-2-yl}piperidine-2,6-dione] | 0.1 to 1 | > 1
